Results from patent publication US12492188B2, “1H-benzo[D]imidazole derivatives as TLR9 inhibitors for the treatment of fibrosis” (BRISTOL-MYERS SQUIBB COMPANY, priority 2020, dated 2025).
Read-outs that look alike come from different tables or passages of the source.

Columns and labels:
Type in all cases: cell-based
human TLR9 = target: T1, human TLR9 (Homo sapiens, UniProt Q9NR96); test: TLR9 inhibition reporter assay (HEK-Blue cells, secreted embryonic alkaline phosphatase reporter)
T1 construct: host or cells: HEK-Blue cells (HEK293-derived reporter line)
T1 sequence (Q9NR96 26-1032): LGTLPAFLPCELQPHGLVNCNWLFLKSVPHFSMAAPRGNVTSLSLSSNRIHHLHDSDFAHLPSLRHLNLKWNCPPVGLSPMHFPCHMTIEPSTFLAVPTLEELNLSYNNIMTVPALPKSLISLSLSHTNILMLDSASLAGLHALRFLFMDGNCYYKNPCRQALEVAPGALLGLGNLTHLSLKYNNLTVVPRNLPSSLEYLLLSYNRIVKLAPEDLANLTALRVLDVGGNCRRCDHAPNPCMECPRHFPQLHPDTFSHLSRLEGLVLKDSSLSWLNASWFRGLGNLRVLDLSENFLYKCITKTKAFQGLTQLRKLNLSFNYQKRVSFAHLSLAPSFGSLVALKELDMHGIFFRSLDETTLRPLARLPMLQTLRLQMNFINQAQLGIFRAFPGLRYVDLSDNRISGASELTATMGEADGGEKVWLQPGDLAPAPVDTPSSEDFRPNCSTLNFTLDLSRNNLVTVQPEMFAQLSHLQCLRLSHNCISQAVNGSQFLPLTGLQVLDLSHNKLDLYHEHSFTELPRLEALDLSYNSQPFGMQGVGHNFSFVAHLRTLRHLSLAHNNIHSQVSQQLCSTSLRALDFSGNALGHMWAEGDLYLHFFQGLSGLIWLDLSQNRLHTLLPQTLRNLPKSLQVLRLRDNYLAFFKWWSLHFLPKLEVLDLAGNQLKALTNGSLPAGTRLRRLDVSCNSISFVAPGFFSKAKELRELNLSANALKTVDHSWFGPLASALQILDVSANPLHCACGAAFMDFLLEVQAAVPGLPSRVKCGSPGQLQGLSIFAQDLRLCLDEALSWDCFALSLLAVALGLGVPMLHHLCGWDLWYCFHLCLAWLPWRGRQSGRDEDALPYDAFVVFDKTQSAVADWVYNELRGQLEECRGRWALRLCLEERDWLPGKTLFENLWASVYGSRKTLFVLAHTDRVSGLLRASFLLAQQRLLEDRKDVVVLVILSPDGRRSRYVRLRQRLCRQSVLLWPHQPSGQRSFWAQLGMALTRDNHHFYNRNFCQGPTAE
Method in brief: (§1)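 Cells seeded at 15000 (TLR7), 20,000 (TLR8) or 25,000 (TLR9) per well; compound 0.05 nM–50 μM, 30 min RT pre-incubation. Agonists: gardiquimod 7.5 μM, R848 15.9 μM, ODN2006 5 nM respectively. 22 h, 37 °C; SEAP via HEK-Blue Detection; % inhibition vs agonist+DMSO and known-inhibitor wells.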

human TLR7 = target: T2, human TLR7 (Homo sapiens, UniProt Q9NYK1); test: TLR7 inhibition reporter assay (HEK-Blue cells, secreted embryonic alkaline phosphatase reporter); settings: HEK-Blue cells overexpressing human TLR7, stimulated with gardiquimod 7.5 μM; read-out: TLR 7 IC50
T2 construct: host or cells: HEK-Blue cells (HEK293-derived reporter line)
T2 sequence (Q9NYK1 27-1049): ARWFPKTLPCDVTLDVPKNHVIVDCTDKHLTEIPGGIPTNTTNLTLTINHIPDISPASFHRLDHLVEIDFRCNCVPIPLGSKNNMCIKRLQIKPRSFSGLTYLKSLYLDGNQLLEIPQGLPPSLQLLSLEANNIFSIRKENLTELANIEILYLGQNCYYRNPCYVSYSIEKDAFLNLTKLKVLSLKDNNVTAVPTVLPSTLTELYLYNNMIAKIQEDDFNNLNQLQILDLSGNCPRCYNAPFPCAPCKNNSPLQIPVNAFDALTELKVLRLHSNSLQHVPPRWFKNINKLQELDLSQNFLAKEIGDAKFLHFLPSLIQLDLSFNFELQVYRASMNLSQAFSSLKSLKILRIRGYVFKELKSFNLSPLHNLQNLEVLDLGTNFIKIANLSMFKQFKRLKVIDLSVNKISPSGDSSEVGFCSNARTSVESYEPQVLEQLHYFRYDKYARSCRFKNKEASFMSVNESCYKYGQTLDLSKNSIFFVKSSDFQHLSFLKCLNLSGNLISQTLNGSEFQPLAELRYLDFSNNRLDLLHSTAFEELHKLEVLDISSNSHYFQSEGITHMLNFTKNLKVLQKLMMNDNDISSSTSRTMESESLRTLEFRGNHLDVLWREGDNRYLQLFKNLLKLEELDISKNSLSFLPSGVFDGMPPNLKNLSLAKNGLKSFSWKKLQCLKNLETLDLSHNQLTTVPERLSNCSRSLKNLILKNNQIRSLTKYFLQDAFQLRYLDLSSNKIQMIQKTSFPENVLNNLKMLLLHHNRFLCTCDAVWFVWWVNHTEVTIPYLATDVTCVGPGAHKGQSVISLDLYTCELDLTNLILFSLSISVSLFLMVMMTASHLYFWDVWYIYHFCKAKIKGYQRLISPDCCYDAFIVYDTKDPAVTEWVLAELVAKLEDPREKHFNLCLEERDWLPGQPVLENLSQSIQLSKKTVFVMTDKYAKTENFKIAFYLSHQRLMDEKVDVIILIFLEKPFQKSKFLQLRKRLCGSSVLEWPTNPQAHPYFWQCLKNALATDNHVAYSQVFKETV
Method in brief: as §1

human TLR8 = target: T3, human TLR8 (Homo sapiens, UniProt Q9NR97); test: TLR8 inhibition reporter assay (HEK-Blue cells, secreted embryonic alkaline phosphatase reporter); settings: HEK-Blue cells overexpressing human TLR8, stimulated with R848 15.9 μM; read-out: TLR 8 IC50
T3 construct: host or cells: HEK-Blue cells (HEK293-derived reporter line)
T3 sequence (Q9NR97 27-1041): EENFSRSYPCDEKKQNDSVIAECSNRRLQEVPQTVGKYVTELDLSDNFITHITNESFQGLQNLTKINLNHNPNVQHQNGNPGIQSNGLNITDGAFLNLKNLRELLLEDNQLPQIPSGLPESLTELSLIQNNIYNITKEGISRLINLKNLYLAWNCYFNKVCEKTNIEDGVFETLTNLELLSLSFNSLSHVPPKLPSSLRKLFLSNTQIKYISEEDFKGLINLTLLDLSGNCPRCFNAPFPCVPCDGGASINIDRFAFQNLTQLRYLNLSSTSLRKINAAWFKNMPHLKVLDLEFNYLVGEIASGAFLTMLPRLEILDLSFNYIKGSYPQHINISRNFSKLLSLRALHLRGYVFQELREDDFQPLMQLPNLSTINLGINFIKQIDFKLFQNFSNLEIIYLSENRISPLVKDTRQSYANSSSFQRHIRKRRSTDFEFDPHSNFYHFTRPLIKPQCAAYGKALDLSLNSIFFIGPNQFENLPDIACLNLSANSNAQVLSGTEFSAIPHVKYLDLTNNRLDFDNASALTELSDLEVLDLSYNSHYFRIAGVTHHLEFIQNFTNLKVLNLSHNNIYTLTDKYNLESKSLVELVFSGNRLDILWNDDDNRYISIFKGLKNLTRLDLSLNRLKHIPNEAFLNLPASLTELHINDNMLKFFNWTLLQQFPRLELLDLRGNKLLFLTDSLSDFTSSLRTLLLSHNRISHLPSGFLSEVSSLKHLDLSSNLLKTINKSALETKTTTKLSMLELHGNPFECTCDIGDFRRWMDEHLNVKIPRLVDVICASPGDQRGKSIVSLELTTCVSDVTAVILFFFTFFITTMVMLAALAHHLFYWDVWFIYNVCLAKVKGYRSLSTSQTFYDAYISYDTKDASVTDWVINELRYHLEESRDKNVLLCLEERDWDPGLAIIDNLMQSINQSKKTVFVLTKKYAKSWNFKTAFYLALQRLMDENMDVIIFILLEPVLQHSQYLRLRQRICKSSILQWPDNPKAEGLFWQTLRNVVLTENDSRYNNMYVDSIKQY
Method in brief: as §1

[1] = HEK-Blue cells overexpressing human TLR9, stimulated with ODN2006 5 nM, read-out: TLR 9 IC50
[2] = HEK-Blue human TLR9 reporter cells
[3] = HEK-Blue cells overexpressing human TLR9, stimulated with ODN2006 5 nM, 22 hour incubation, reporter readout

IC50 (human TLR9; [1]) | IC50 (human TLR9; [2]) | IC50 (human TLR7) | IC50 (human TLR8) | IC50 (human TLR9; [3]) | SMILES
12 nM | 12 nM | 1400 nM | > 50000 nM |  | CC(C)CN1C2CCC1CC(N1CCC(c3cc(F)c4nc(-c5ccc(S(C)(=O)=O)cc5)n(C5CC5)c4c3)CC1)C2 (single isomer, unassigned) [Example 322, 1-cyclopropyl-4-fluoro-6-(1-(8-isobutyl-8-azabicyclo[3.2.1]octan-3-yl)piperidin-4-yl)-2-(4-(methylsulfonyl)phenyl)-1H-benzo[d]imidazole]
60 nM | 60 nM | 2100 nM | > 50000 nM |  | CC(C)CN1C2CCC1CC(N1CCC(c3cc(F)c4nc(-c5ccc(S(C)(=O)=O)cc5)n(C5CC5)c4c3)CC1)C2 (single isomer, unassigned) [Example 323, 1-cyclopropyl-4-fluoro-6-(1-(8-isobutyl-8-azabicyclo[3.2.1]octan-3-yl)piperidin-4-yl)-2-(4-(methylsulfonyl)phenyl)-1H-benzo[d]imidazole]
42 nM | 42 nM | 1500 nM | > 50000 nM |  | CS(=O)(=O)c1ccc(-c2nc3c(F)cc(C4CCN(C5CC6CCC(C5)N6CC5CC5)CC4)cc3n2C2CC2)cc1 (single isomer, unassigned) [Example 324, 1-cyclopropyl-6-(1-(8-(cyclopropylmethyl)-8-azabicyclo[3.2.1]octan-3-yl)piperidin-4-yl)-4-fluoro-2-(4-(methylsulfonyl)phenyl)-1H-benzo[d]imidazole]
15 nM | 15 nM | 8200 nM | > 50000 nM |  | CS(=O)(=O)c1ccc(-c2nc3c(F)cc(C4CCN(C5CC6CCC(C5)N6CC5CC5)CC4)cc3n2C2CC2)cc1 (single isomer, unassigned) [Example 325, 1-cyclopropyl-6-(1-(8-(cyclopropylmethyl)-8-azabicyclo[3.2.1]octan-3-yl)piperidin-4-yl)-4-fluoro-2-(4-(methylsulfonyl)phenyl)-1H-benzo[d]imidazole]
23 nM | 23 nM | 1300 nM | > 50000 nM |  | CS(=O)(=O)c1ccc(-c2nc3c(F)cc(C4CCN(C5CC6CCC(C5)N6C5CCC5)CC4)cc3n2C2CC2)cc1 (single isomer, unassigned) [Example 326, 6-(1-(8-cyclobutyl-8-azabicyclo[3.2.1]octan-3-yl)piperidin-4-yl)-1-cyclopropyl-4-fluoro-2-(4-(methylsulfonyl)phenyl)-1H-benzo[d]imidazole]
111 nM | 110 nM | 2000 nM | 18400 nM |  | CS(=O)(=O)c1ccc(-c2nc3c(F)cc(C4CCN(C5CC6CCC(C5)N6C5CCC5)CC4)cc3n2C2CC2)cc1 (single isomer, unassigned) [Example 327, 6-(1-(8-cyclobutyl-8-azabicyclo[3.2.1]octan-3-yl)piperidin-4-yl)-1-cyclopropyl-4-fluoro-2-(4-(methylsulfonyl)phenyl)-1H-benzo[d]imidazole]

Continued, compound first:

SMILES | IC50 (human TLR9; [1]) | IC50 (human TLR9; [2]) | IC50 (human TLR7) | IC50 (human TLR8) | IC50 (human TLR9; [3])
COCCN1CCCC(N2CCC(c3cc(C)c4nc(-c5ccc(S(C)(=O)=O)cc5)n(C)c4c3)CC2)CC1 (single isomer, unassigned) [Example 309, 6-(1-(1-(2-methoxyethyl)azepan-4-yl)piperidin-4-yl)-1,4-dimethyl-2-(4-(methylsulfonyl)phenyl)-1H-benzo[d]imidazole] | 34 nM | 34 nM | 1900 nM | > 50000 nM | 
COc1cc(-c2nc3c(C)cc(C4CCN(C5CC6CCC(C5)N6C5CCC5)CC4)cc3n2C)cn2ncnc12 (single isomer, unassigned) [Example 355, 6-(6-(1-(8-cyclobutyl-8-azabicyclo[3.2.1]octan-3-yl)piperidin-4-yl)-1,4-dimethyl-1H-benzo[d]imidazol-2-yl)-8-methoxy-[1,2,4]triazolo[1,5-a]pyridine] | 11 nM | 11 nM | 200 nM | 3100 nM | 
COc1ccc(-c2nc3ccc(C4CCN(C5CCN(C(C)C)CC5)CC4)cc3n2C)cc1OC [Example 1, 2-(3,4-dimethoxyphenyl)-6-(1′-isopropyl-[1,4′-bipiperidin]-4-yl)-1-methyl-1H-benzo[d]imidazole] |  |  | 5900 nM | 1100 nM | 56 nM
COc1ccc(-c2nc3ccc(C4CCN(C5CCN(C(C)C)CC5)CC4)cc3[nH]2)cc1OC [Example 2, 2-(3,4-dimethoxyphenyl)-6-(1′-isopropyl-[1,4′-bipiperidin]-4-yl)-1H-benzo[d]imidazole] | 123 nM |  | 16000 nM | > 50000 nM | 120 nM
COc1ccc(-c2nc3ccc(C4CCN(C5CCN(C(C)C)CC5)CC4)cc3n2C(C)C)cc1OC [Example 3, 2-(3,4-dimethoxyphenyl)-1-isopropyl-6-(1′-isopropyl-[1,4′-bipiperidin]-4-yl)-1H-benzo[d]imidazole] | 169 nM |  | 280 nM | > 50000 nM | 170 nM
